Data reported in patent US12584101B2, “Compositions and method of use for H5 competent Bifidobacterium longum subsp. Infantis” (INFINANT HEALTH, INC., priority 2018, dated 2026).

Test system: Blon_0881 and Blon_2343
Test: qPCR gene expression of Blon_0881 and Blon_2343 relative to Blon_0393 (activation)
Assay type: cell-based, B. infantis
Conditions: 5, 10, 15 and 20 g/L of NAG, rest glucose to 20 g/L; stationary phase
Experimental: In some embodiments, gene activation relates to Blon_0881 and Blon_2343 and their expression is greater than 1; that is, when the delta delta cycle threshold (2^ΔΔCt) is greater than 1, DDCT is calculated using Blon_0393, or another constitutively expressed gene as a reference. The result (activation) is the fold change (2^ΔΔCt>1) of gene expression. Determined based on the double delta CT (2^ΔΔCt) method (Livak K and Schmittgen T. (2001) Analysis of relative gene expression data using real-time quantitative PCR and the 2(−Delta Delta C(T)) Method. Methods: 25: 402-8). In other embodiments, other genes from Table 1 are used in addition to Blon_0881 and Blon_2343.
A series of fermentations were conducted where B. infantis was grown on various concentrations of NAG and glucose. MRS broth was prepared without a carbon source. The carbon source was added at 2% of the media or 20 g/L. The carbon source was varied according to Table 5. The cells were grown to the stationary phase and spun down. The supernatant was removed and the cells lysed. RNA was extracted. The cells were tested for increase in gene expression of Blon_0881 and Blon_2343 by qPCR relative to Blon_0393. The 2^ΔΔCt was greater than 1 confirming activation for 5, 10, 15 and 20 g/L of NAG. […]

## N-acetyl-glucosamine/galactosamine (NAG)
  2^ΔΔCt of Blon_0881 and Blon_2343 relative to Blon_0393: greater than 1
